Source: US20240425545A1 (Durect Corporation, priority 2021, published 2024)
“Also recorded” adds a separate entry of the source. Read-outs that look alike come from different tables or passages of the source.

Tests used:
[1] = Experimental: Four vials were prepared and stored at 2-8° C. or […] according to Table B2. The samples were scheduled initially to pull for testing at 3 weeks and 6 weeks time points.
For appearance, each unopened vial was visually examined for color, clumping, and flowability.
Based on the molecular weights, and expected UV response factors used in this study, the expected analytical sample concentrations were within the range of the 25HC3S sodium reference standards (0.75 mg/mL to 1.25 mg/mL as 25HC3S Sodium Salt).
Samples were prepared by pipetting 20 mL of 100% methanol into each vial and mixing well, with sonication and vortexing to fully dissolve the samples for HPLC analysis.
HPLC analysis was performed.

[2] = Dynamic vapor sorption (DVS); format: physicochemical; conditions: for Hygroscopicity: in words, up to about 95% relative humidity
Description: Dynamic vapor sorption data was collected on a Surface Measurement System DVS Intrinsic instrument. The samples were not dried prior to analysis. […] Data were not corrected for the initial moisture content of the sample.

[3] = remark: listed apart in the source
Experimental: Angle of repose is measured as follows. Powder is poured from a funnel onto a flat surface until a cone of powder is created. The angle of repose is calculated according to the following equation: […]
The height of the cone was estimated with calipers.

[4] = 5 mL cylinder, 300 taps
Experimental: Although there are some variations in the method of determining the compressibility index and Hausner ratio, the basic procedure is to measure the unsettled apparent volume, VO, and the final tapped volume, Vf, of the powder after tapping the material until no further volume changes occur. The compressibility index and the Hausner ratio are calculated as follows: […]
Powder was carefully poured into a 5 mL glass graduated cylinder (to contain) until it was close to or at 5.0 mL. This initial volume was recorded as Vo. The graduated cylinder was tapped on a hard surface for 200 times and the volume was recorded. The cylinder was tapped 100 times more, and the final volume Vf was recorded.

C[C@H](CCCC(C)(C)O)[C@H]1CC[C@H]2[C@@H]3CC=C4C[C@@H](OS(=O)(=O)[O-])CC[C@]4(C)[C@H]3CC[C@]12C.C[N+](C)(C)CCO [25HC3S choline, 25-Hydroxy-Cholest-5-En-3-Sulfate Choline]
Physical and chemical solid-state stability, comments [1]: Stable after 5 weeks at 80 °C physically and | Temperature stability [1]: good temperature stability | % Recovery of 2-8° C./3 wk vs 60° C./1 wk; 2-8° C./5 wk vs 80° C./5 wk ([1]; 3 wk): 100.8% | % Recovery of 2-8° C./3 wk vs 60° C./1 wk; 2-8° C./5 wk vs 80° C./5 wk ([1]; 5 wk): 97.3% | X-ray powder diffraction pattern after DVS ([2]; before vs after DVS, FIG. 3): does not appreciably change | Hygroscopicity [2]: less hygroscopic | Hygroscopicity ([2]; listed as crystalline 25HC3S choline): not appreciably hygroscopic; also recorded: less hygroscopic | Angle of Repose ([3]; about 2 g powder, cone of 21.14 mm diameter): 34.9 degrees | Angle of Repose Rounded Whole Number ([3]; rounded): 35 degrees | Compressibility Index [4]: 42 | Hausner Ratio [4]: 1.72

C[C@H](CCCC(C)(C)O)[C@H]1CC[C@H]2[C@@H]3CC=C4C[C@@H](OS(=O)(=O)[O-])CC[C@]4(C)[C@H]3CC[C@]12C.[Na+] [crystalline 25HC3S sodium, reference compound]
Weight gain (water uptake) in DVS ([2]; from 5% up to about 95% relative humidity): significant water uptake
